± gives the standard deviation of the averaged measurements.
Experiments:
[1] = compound: O=C(O)CC[C@H]1CC[C@@](c2cc(F)ccc2F)(S(=O)(=O)c2ccc(Cl)cc2)CC1 [MK0752]; assay: surviving fraction relative to DMSO-only wells; higher = less growth inhibition; conditions: exposure time: 5 days
Method in brief: (§1)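 Log-phase tumour cell lines, 250–500 cells per well in 384-well plates, received inhibitors at 0.5, 1, 5, 10, 50, 100, 500 and 1000 nM continuously for five days, starting 24 hours after seeding. Viability was quantified with CellTiter-Glo luminescence and normalised to the median of DMSO-only wells to give surviving fraction. Three screens were run per line, and a line stayed in only with replicate Pearson r >0.7 and median Z' >0.3.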

[2] = compound: O=C(NOCC1CC1)c1ccc(F)c(F)c1Nc1ccc(I)cc1Cl; assay: as above; conditions: exposure time: 5 days
Method in brief: as §1

Row | Test System | surviving fraction ([1]; 0.5 nM) | surviving fraction ([1]; 1 nM) | surviving fraction ([1]; 5 nM) | surviving fraction ([1]; 10 nM) | surviving fraction ([1]; 50 nM) | surviving fraction ([1]; 100 nM) | surviving fraction ([1]; 500 nM) | surviving fraction ([1]; 1000 nM) | surviving fraction ([2]; 0.5 nM) | surviving fraction ([2]; 1 nM) | surviving fraction ([2]; 5 nM) | surviving fraction ([2]; 10 nM) | surviving fraction ([2]; 50 nM) | surviving fraction ([2]; 100 nM) | surviving fraction ([2]; 500 nM) | surviving fraction ([2]; 1000 nM)
1 | MDAMB361 BREAST | 0.833 ± 0.044 | 0.904 ± 0.077 | 0.873 ± 0.044 | 0.851 ± 0.084 | 0.893 ± 0.06 | 0.91 ± 0.064 | 0.884 ± 0.056 | 0.825 ± 0.073 | 1.06 ± 0.12 | 0.887 ± 0.067 | 0.986 ± 0.076 | 0.973 ± 0.029 | 0.963 ± 0.083 | 1.03 ± 0.019 | 1.05 ± 0.072 | 0.972 ± 0.12
2 | MDAMB436 BREAST | 0.928 ± 0.052 | 0.895 ± 0.12 | 0.885 ± 0.051 | 0.901 ± 0.097 | 1.02 ± 0.13 | 0.881 ± 0.08 | 0.897 ± 0.062 | 0.856 ± 0.036 | 0.904 ± 0.065 | 0.905 ± 0.024 | 0.932 ± 0.026 | 0.883 ± 0.029 | 0.8685 ± 0.0053 | 0.959 ± 0.085 | 0.944 ± 0.023 | 0.78 ± 0.016
3 | MDAMB453 BREAST | 1.04 ± 0.078 | 1.06 ± 0.052 | 1.1 ± 0.023 | 1.09 ± 0.051 | 1.08 ± 0.049 | 1.14 ± 0.034 | 1.01 ± 0.029 | 1.07 ± 0.043 | 0.958 ± 0.033 | 1.02 ± 0.062 | 1.02 ± 0.072 | 0.992 ± 0.046 | 1.03 ± 0.094 | 1.05 ± 0.028 | 1.02 ± 0.06 | 1.06 ± 0.03
4 | MDAMB468 BREAST | 1.03 ± 0.085 | 1.01 ± 0.074 | 1.1 ± 0.035 | 1.07 ± 0.07 | 1.17 ± 0.023 | 1.17 ± 0.028 | 1.07 ± 0.035 | 1.1 ± 0.035 | 0.938 ± 0.079 | 0.983 ± 0.083 | 1.02 ± 0.029 | 1 ± 0.11 | 0.933 ± 0.046 | 0.998 ± 0.038 | 0.885 ± 0.029 | 0.913 ± 0.0098
5 | MFM223 BREAST | 1.21 ± 0.047 | 1.14 ± 0.13 | 1.16 ± 0.048 | 1.155 ± 0.0068 | 1.19 ± 0.03 | 1.23 ± 0.016 | 1.19 ± 0.1 | 1.19 ± 0.067 | 1.09 ± 0.046 | 1.06 ± 0.088 | 1.05 ± 0.059 | 1.07 ± 0.089 | 1.14 ± 0.037 | 1.12 ± 0.057 | 1.012 ± 0.0095 | 1.04 ± 0.03
6 | MG63 BONE | 1.07 ± 0.047 | 1.07 ± 0.033 | 1.11 ± 0.037 | 1.08 ± 0.022 | 1.13 ± 0.055 | 1.1 ± 0.029 | 0.987 ± 0.029 | 0.955 ± 0.02 | 0.9313 ± 0.0065 | 0.969 ± 0.018 | 0.976 ± 0.016 | 0.997 ± 0.017 | 0.935 ± 0.0096 | 0.957 ± 0.011 | 0.85 ± 0.018 | 0.859 ± 0.022
7 | MHM BONE | 1 ± 0.032 | 1.04 ± 0.029 | 1.06 ± 0.029 | 1.06 ± 0.043 | 1.08 ± 0.029 | 1.08 ± 0.013 | 0.975 ± 0.025 | 0.989 ± 0.026 | 0.947 ± 0.024 | 0.906 ± 0.095 | 0.992 ± 0.013 | 1.01 ± 0.015 | 0.974 ± 0.028 | 0.971 ± 0.048 | 0.926 ± 0.022 | 0.931 ± 0.032
8 | NCIH441 LUNG | 0.971 ± 0.21 | 1 ± 0.17 | 1.11 ± 0.057 | 1.08 ± 0.099 | 1.02 ± 0.03 | 1.05 ± 0.061 | 1.07 ± 0.11 | 0.974 ± 0.065 | 0.939 ± 0.093 | 0.968 ± 0.084 | 0.945 ± 0.026 | 0.984 ± 0.041 | 0.909 ± 0.013 | 0.846 ± 0.031 | 0.722 ± 0.023 | 0.757 ± 0.053
9 | NOS1 BONE | 1.08 ± 0.058 | 1.19 ± 0.087 | 1.16 ± 0.12 | 1.27 ± 0.068 | 1.16 ± 0.042 | 1.28 ± 0.23 | 1.05 ± 0.083 | 1.08 ± 0.032 | 1.15 ± 0.08 | 1.15 ± 0.075 | 1.16 ± 0.057 | 1.16 ± 0.062 | 0.949 ± 0.065 | 0.952 ± 0.1 | 0.863 ± 0.054 | 0.773 ± 0.016
